Reference: ChEMBL document CHEMBL4334493, “14- and 15-membered lactone macrolides and their analogues and hybrids: structure, molecular mechanism of action and biological activity” (Eur J Med Chem, 2019)
In brackets after ≈: the same amount, converted by molar mass.

Key:
Format in all cases: functional
Streptococcus pneumoniae [1] = assay: Antibacterial activity against Streptococcus pneumoniae ATCC 49619
Streptococcus pneumoniae [2] = assay: Antibacterial activity against Streptococcus pneumoniae 655 mefA
Escherichia coli [3] = assay: Antibacterial activity against Escherichia coli DK pKK 3535
Escherichia coli [4] = assay: Antibacterial activity against Escherichia coli DK A2058G
Staphylococcus aureus [5] = assay: Antibacterial activity against Staphylococcus aureus 11B117 by broth microdilution method
[6] = system: Staphylococcus epidermidis; assay: Antibacterial activity against Staphylococcus epidermidis 11X315 by broth microdilution method
Haemophilus influenzae [7] = assay: Antibacterial activity against Haemophilus influenzae 11Q373 by broth microdilution method
Staphylococcus aureus [8] = assay: Antibacterial activity against Staphylococcus aureus ATCC 29213 by broth microdilution method
Streptococcus pneumoniae [9] = assay: Antibacterial activity against Streptococcus pneumoniae 11J011 by broth microdilution method
Haemophilus influenzae [10] = assay: Antibacterial activity against Haemophilus influenzae ATCC 49247 by broth microdilution method
[11] = system: Staphylococcus epidermidis; assay: Antibacterial activity against Staphylococcus epidermidis 11C176 by broth microdilution method
Moraxella catarrhalis = assay: Antibacterial activity against Moraxella catarrhalis by broth microdilution method
Streptococcus pneumoniae [12] = assay: Antibacterial activity against Streptococcus pneumoniae ATCC 49619 by broth microdilution method
Pseudomonas aeruginosa = assay: Antibacterial activity against Pseudomonas aeruginosa ATCC 27853
Klebsiella pneumoniae = assay: Antibacterial activity against Klebsiella pneumoniae ATCC 10031
Staphylococcus aureus [13] = assay: Antibacterial activity against methicillin resistant Staphylococcus aureus MP513 expressing cErmA
Staphylococcus aureus [14] = assay: Antibacterial activity against Staphylococcus aureus BAA-977 expressing iermA
Staphylococcus aureus [15] = assay: Antibacterial activity against methicillin resistant Staphylococcus aureus NRS384 expressing MsrA
Enterococcus faecalis [16] = assay: Antibacterial activity against Enterococcus faecalis ATCC 29212
Acinetobacter baumannii = assay: Antibacterial activity against Acinetobacter baumannii ATCC 19606; conditions: ATCC 19606 = CIP 70.34 = JCM 6841
Streptococcus pneumoniae [17] = assay: Antibacterial activity against Streptococcus pneumoniae UNT-042 expressing ErmB/MefA
Staphylococcus aureus [18] = assay: Antibacterial activity against Staphylococcus aureus ATCC 29213
Streptococcus pyogenes = assay: Antibacterial activity against Streptococcus pyogenes ATCC 19615
Enterococcus faecalis [19] = assay: Antibacterial activity against Enterococcus faecalis UN-047 VRE expressing ErmS
Haemophilus influenzae [20] = assay: Antibacterial activity against Haemophilus influenzae ATCC 49247
Escherichia coli [21] = assay: Antibacterial activity against Escherichia coli ATCC 25922
Haemophilus influenzae [22] = assay: Antibacterial activity against Haemophilus influenzae 33929
Haemophilus influenzae [23] = assay: Antibacterial activity against Haemophilus influenzae 49247
Staphylococcus aureus [24] = assay: Antibacterial activity against methicillin resistant Staphylococcus aureus 33591
Staphylococcus aureus [25] = assay: Antibacterial activity against methicillin resistant Staphylococcus aureus 7662

MIC50 (Staphylococcus aureus [5]) [µg/mL]	MIC50 [6] [µg/mL]	MIC50 (Haemophilus influenzae [7]) [µg/mL]	MIC50 (Staphylococcus aureus [8]) [µg/mL]	MIC50 (Streptococcus pneumoniae [9]) [µg/mL]	MIC50 (Haemophilus influenzae [10]) [µg/mL]	MIC50 [11] [µg/mL]	MIC50 (Moraxella catarrhalis) [µg/mL]	MIC50 (Streptococcus pneumoniae [12]) [µg/mL]	Compound	MIC (Streptococcus pneumoniae [1]) [µg/mL]	MIC (Streptococcus pneumoniae [2]) [µg/mL]	MIC (Escherichia coli [3]) [µg/mL]	MIC (Escherichia coli [4]) [µg/mL]	further results
									CC[C@H]1OC(=O)[C@@](C)(F)C(=O)[C@H](C)[C@@H](O[C@@H]2O[C@H](C)C[C@H](N(C)C)[C@H]2O)[C@](C)(OC)C[C@@H](C)C(=O)[C@H](C)[C@H]2N(CCCCn3cc(-c4cccs4)nn3)C(=O)O[C@]12C	1 (≈ 1.2 µM)	0.5 (≈ 0.598 µM)	1 (≈ 1.2 µM)	0.004 (≈ 0.00478 µM)	
> 64	0.25 (≈ 0.282 µM)	2 (≈ 2.25 µM)	0.25 (≈ 0.282 µM)	2 (≈ 2.25 µM)	2 (≈ 2.25 µM)	0.25 (≈ 0.282 µM)	0.25 (≈ 0.282 µM)	0.031 (≈ 0.0349 µM)	CC[C@H]1OC(=O)[C@H](C)C(=O)[C@H](C)[C@@H](O[C@@H]2O[C@H](C)C[C@H](N(C)C)[C@H]2O)[C@](C)(OC)C[C@@H](C)C(=O)[C@H](C)[C@H]2N(CCCN(Cc3ccccc3)c3cnc4ccccc4c3)C(=O)O[C@]12C					
> 64	1 (≈ 1.05 µM)	16 (≈ 16.8 µM)	2 (≈ 2.1 µM)	2 (≈ 2.1 µM)	32 (≈ 33.6 µM)	1 (≈ 1.05 µM)	2 (≈ 2.1 µM)	0.25 (≈ 0.263 µM)	CC[C@H]1OC(=O)[C@H](C)C(=O)[C@H](C)[C@@H](O[C@@H]2O[C@H](C)C[C@H](N(C)C)[C@H]2O)[C@](C)(OC)C[C@@H](C)C(=O)[C@H](C)[C@H]2N(CCCN(c3cnc4ccccc4c3)S(=O)(=O)c3ccc(C)cc3)C(=O)O[C@]12C					
									CC[C@H]1OC(=O)[C@@](C)(F)C(=O)[C@H](C)[C@@H](O[C@@H]2O[C@H](C)C[C@H](N(C)C)[C@H]2O)[C@](C)(OC)C[C@@H](C)C(=O)[C@H](C)[C@H]2N(CCCCn3nncc3-c3cccs3)C(=O)O[C@]12C	1 (≈ 1.2 µM)	0.5 (≈ 0.598 µM)	1 (≈ 1.2 µM)	0.004 (≈ 0.00478 µM)	
									CC[C@H]1OC(=O)[C@H](C)C(=O)[C@H](C)[C@@H](O[C@@H]2O[C@H](C)C[C@H](N(C)C)[C@H]2O)[C@](C)(OC)C[C@@H](C)CN[C@H](C)[C@H]2N(CCCCn3cc(-c4cccc(N)c4)nn3)C(=O)O[C@]12C	≤ 0.03				MIC (Pseudomonas aeruginosa): 64 µg/mL (≈ 77.3 µM); MIC (Klebsiella pneumoniae): 2 µg/mL (≈ 2.42 µM); MIC (Staphylococcus aureus [13]): > 64 µg/mL; MIC (Staphylococcus aureus [14]): 0.5 µg/mL (≈ 0.604 µM); MIC (Staphylococcus aureus [15]): 1 µg/mL (≈ 1.21 µM); MIC (Enterococcus faecalis [16]): 0.125 µg/mL (≈ 0.151 µM); MIC (Acinetobacter baumannii): 4 µg/mL (≈ 4.83 µM); MIC (Streptococcus pneumoniae [17]): 2 µg/mL (≈ 2.42 µM); MIC (Staphylococcus aureus [18]): 0.5 µg/mL (≈ 0.604 µM); MIC (Streptococcus pyogenes): ≤ 0.03 µg/mL; MIC (Enterococcus faecalis [19]): > 64 µg/mL; MIC (Haemophilus influenzae [20]): 2 µg/mL (≈ 2.42 µM); MIC (Escherichia coli [21]): 4 µg/mL (≈ 4.83 µM)
									CCC(=O)/N=C1\[C@H](C)C[C@@]2(C)OC/C(=N/OCc3csc(-c4cccc(N)n4)n3)CO[C@H]([C@H]1C)[C@](C)(O)[C@@H](CC)OC(=O)[C@@](C)(F)C(=O)[C@H](C)[C@H]2O[C@@H]1O[C@H](C)C[C@H](N(C)C)[C@H]1O					MIC (Haemophilus influenzae [22]): 4 µg/mL (≈ 4.42 µM); MIC (Haemophilus influenzae [23]): 1 µg/mL (≈ 1.1 µM); MIC (Staphylococcus aureus [24]): 2 µg/mL (≈ 2.21 µM); MIC (Staphylococcus aureus [25]): 1 µg/mL (≈ 1.1 µM)
